In US20250313563A1, “GLYCOGEN SYNTHASE KINASE 3 INHIBITORS AND USES THEREOF” (The Broad Institute, Inc., priority 2022, published 2025):
Where two headings read alike, the source gives them in different places.

Experiments:
[1] = target: GSK3b (GST-full length GSK3b) (Homo sapiens (Human), UniProt P49841); experiment: GSK3b TR-FRET kinase assay; format: biochemical; conditions: 1 nM GSK3b, 2 μM ATP, 30 minute preincubation, Table 16, read-out: GSK3-B TR-FRET BIOCHEMICAL (TR-FRET)
In short: (§1)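 IC50 came from the normalized 665/615 nm TR-FRET ratio plotted against log compound concentration. The Tb-labelled pSer641 antibody and streptavidin-d2 detected phosphorylation of biotinylated S645-primed glycogen synthase peptide (200 nM) by 1 nM full-length GST-kinase. ATP was 4 μM for α, 2 μM for β, or 1 mM.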

[2] = target: GSK3α (GST-full length GSK3α) (Homo sapiens (Human), UniProt P49840); experiment: GSK3α TR-FRET kinase assay; format: biochemical; conditions: 1 nM GSK3α, 4 μM ATP, 30 minute preincubation, Table 16, read-out: GSK3-A TR-FRET BIOCHEMICAL (TR-FRET)
In short: as §1

Sequence of GSK3b (GST-full length GSK3b) (P49841 whole entry): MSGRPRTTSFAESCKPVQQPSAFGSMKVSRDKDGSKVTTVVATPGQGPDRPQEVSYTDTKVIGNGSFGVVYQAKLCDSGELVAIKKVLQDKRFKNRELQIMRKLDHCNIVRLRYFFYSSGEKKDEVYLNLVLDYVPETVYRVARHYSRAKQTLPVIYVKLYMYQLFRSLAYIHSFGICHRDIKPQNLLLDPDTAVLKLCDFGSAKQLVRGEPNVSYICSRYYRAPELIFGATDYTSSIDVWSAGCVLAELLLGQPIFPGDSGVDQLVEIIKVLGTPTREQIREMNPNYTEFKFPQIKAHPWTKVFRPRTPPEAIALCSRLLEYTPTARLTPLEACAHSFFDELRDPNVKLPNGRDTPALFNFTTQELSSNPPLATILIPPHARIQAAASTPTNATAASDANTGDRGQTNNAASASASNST
Sequence of GSK3α (GST-full length GSK3α) (P49840 whole entry): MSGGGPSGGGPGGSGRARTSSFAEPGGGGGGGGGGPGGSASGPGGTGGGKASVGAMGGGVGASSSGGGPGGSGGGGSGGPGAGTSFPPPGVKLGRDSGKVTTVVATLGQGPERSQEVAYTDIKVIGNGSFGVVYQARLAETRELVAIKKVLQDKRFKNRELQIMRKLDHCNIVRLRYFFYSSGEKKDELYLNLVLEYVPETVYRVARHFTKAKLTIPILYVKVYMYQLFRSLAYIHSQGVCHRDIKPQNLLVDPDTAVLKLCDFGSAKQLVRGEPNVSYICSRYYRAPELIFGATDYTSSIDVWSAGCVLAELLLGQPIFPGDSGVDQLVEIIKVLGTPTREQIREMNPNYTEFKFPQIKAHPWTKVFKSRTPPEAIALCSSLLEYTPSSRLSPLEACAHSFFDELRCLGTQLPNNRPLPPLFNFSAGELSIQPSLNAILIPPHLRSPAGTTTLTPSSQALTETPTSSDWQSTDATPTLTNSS

SMILES | IC50 ([1]; IC50) | IC50 ([2]; IC50) | IC50 [1] | IC50 [2]
CCC1(c2cccc(-c3cncn3C)c2)C2=C(CC(C)(C)CC2=O)Nc2n[nH]c(C)c21 (centres unmarked) [Compound 884001] | ≤ 100 nM | ≤ 100 nM |  | 
CCC1(c2cccc(-c3cnn4c3CCCC4)c2)C2=C(CC(C)(C)CC2=O)Nc2n[nH]c(C)c21 (centres unmarked) [Compound 884002] | ≤ 100 nM | ≤ 100 nM |  | 
CCC1(c2cccc(-c3cn(C)nc3C)c2)C2=C(CC(C)(C)CC2=O)Nc2n[nH]c(C)c21 (centres unmarked) [Compound 884003] | ≤ 100 nM | ≤ 100 nM |  | 
CC1(C)CC(=O)C2=C(C1)Nc1n[nH]cc1[C@]21C[C@@H](n2cccn2)C1 [Compound 884004] |  |  | ≤ 100 nM | ≤ 100 nM
CC1(C)CC(=O)C2=C(C1)Nc1n[nH]cc1[C@]21C[C@H](n2cccn2)C1 [Compound 884005] |  |  | ≤ 100 nM | ≤ 100 nM
CC(C)[C@@H]1C[C@@]2(CCO1)C1=C(CC(C)(C)CC1=O)Nc1n[nH]cc12 [Compound 884013] | > 5000 nM | 1000 to 5000 nM |  | 
CC(C)[C@H]1C[C@]2(CCO1)C1=C(CC(C)(C)CC1=O)Nc1n[nH]cc12 [Compound 884014] | > 5000 nM | 1000 to 5000 nM |  | 
CC[C@]1(C)C2=C(CC(C)(C)CC2=O)Nc2n[nH]cc21 [Compound 884019] | 1000 to 5000 nM | 100 to 1000 nM |  | 
CC[C@]1(C)C2=C(CC(C)(C)CC2=O)Nc2n[nH]cc21 [Compound 884020] | > 5000 nM | > 5000 nM |  | 
CC1(C)CC(=O)C2=C(C1)Nc1n[nH]cc1[C@]21CCO[C@@H](C(F)(F)F)C1 [Compound 884021] |  |  | 100 to 1000 nM | 100 to 1000 nM
CC1(C)CC(=O)C2=C(C1)Nc1n[nH]cc1[C@@]21CCO[C@H](C(F)(F)F)C1 [Compound 884022] |  |  | 100 to 1000 nM | 100 to 1000 nM
CC1(C)CC(=O)C2=C(C1)Nc1n[nH]cc1[C@]21CCO[C@H](C(F)(F)F)C1 [Compound 884023] | > 5000 nM | 1000 to 5000 nM |  | 
CC1(C)CC(=O)C2=C(C1)Nc1n[nH]cc1[C@@]21CCO[C@@H](C(F)(F)F)C1 [Compound 884024] | > 5000 nM | 1000 to 5000 nM |  | 
CC1(C)CCC2(CC1)C1=C(CC(C)(C)CC1=O)Nc1n[nH]cc12 [Compound 884107] |  |  | 100 to 1000 nM | ≤ 100 nM
CCN(C(C)=O)c1cccc(C2(CC)C3=C(CC(C)(C)CC3=O)Nc3n[nH]cc32)c1 (centres unmarked) [Compound 884109] | ≤ 100 nM | ≤ 100 nM |  | 
CCC1(c2cccc(N(Cc3ccccc3)C(C)=O)c2)C2=C(CC(C)(C)CC2=O)Nc2n[nH]cc21 (centres unmarked) [Compound 884110] | ≤ 100 nM | ≤ 100 nM |  | 
O=C1CCCC2=C1C1(CCOCC1)c1c[nH]nc1N2 [Compound 884111] | > 5000 nM | 1000 to 5000 nM |  | 
CC1CC(=O)C2=C(C1)Nc1n[nH]cc1C21CCOCC1 (centres unmarked) [Compound 884112] | 100 to 1000 nM | 100 to 1000 nM |  | 

The next lines start with the values.

IC50 ([1]; IC50) | IC50 ([2]; IC50) | IC50 [1] | IC50 [2] | SMILES
 |  | 1000 to 5000 nM | 100 to 1000 nM | C[C@@H]1C[C@H](C)C[C@@]2(C1)C1=C(CC(C)(C)CC1=O)Nc1n[nH]cc12 [Compound 884113]
 |  | 100 to 1000 nM | 100 to 1000 nM | C[C@@H]1C[C@H](C)C[C@]2(C1)C1=C(CC(C)(C)CC1=O)Nc1n[nH]cc12 [Compound 884114]
100 to 1000 nM | 100 to 1000 nM |  |  | CCC1(c2cccc(N3CCCCC3)c2)C2=C(CC(C)(C)CC2=O)Nc2n[nH]c(C)c21 (centres unmarked) [Compound 884115]
 |  | 100 to 1000 nM | ≤ 100 nM | CO[C@H]1CC[C@]2(CC1)C1=C(CC(C)(C)CC1=O)Nc1n[nH]cc12 [Compound 884119]
 |  | 100 to 1000 nM | 100 to 1000 nM | CO[C@H]1CC[C@@]2(CC1)C1=C(CC(C)(C)CC1=O)Nc1n[nH]cc12 [Compound 884120]
100 to 1000 nM | 100 to 1000 nM |  |  | CCC1(c2cccc(N3CCCCCC3)c2)C2=C(CC(C)(C)CC2=O)Nc2n[nH]cc21 (centres unmarked) [Compound 885088]
100 to 1000 nM | ≤ 100 nM |  |  | CCC1(c2cccc(N3CCCC3C)c2)C2=C(CC(C)(C)CC2=O)Nc2n[nH]cc21 (centres unmarked) [Compound 885204]
≤ 100 nM | ≤ 100 nM |  |  | CCN(c1cccnc1)c1cccc(C2(CC)C3=C(CC(C)(C)CC3=O)Nc3n[nH]cc32)c1 (centres unmarked) [Compound 885331]
≤ 100 nM | ≤ 100 nM |  |  | CCC1(c2cccc(N(c3cccnc3)C(C)C)c2)C2=C(CC(C)(C)CC2=O)Nc2n[nH]cc21 (centres unmarked) [Compound 885344]
1000 to 5000 nM | 100 to 1000 nM |  |  | CCN(c1cccc(C2(CC)C3=C(CC(C)(C)CC3=O)Nc3n[nH]cc32)c1)c1cccnc1C (centres unmarked) [Compound 885367]
